Usually IC50 stands for the point on the concentration scale where inhibition reaches its midpoint. Low readings indicate higher potency, high ones lower potency.

From US10450316B2, “Certain protein kinase inhibitor” (Chongqing Fochon Pharmaceutical Co., Ltd., priority 2015, dated 2019) come the findings set out here.

Experiment [1] deals with COLO205 xenograft tumors. Put plainly: Tumor growth inhibition in COLO205 xenograft tumors. The format is in vivo. As to conditions: 30 mg/kg; for Average Tumor Volume D0: D0, in mm³; for Average Tumor Volume D21: D21, in mm³. Here is the method:
COLO205 cells were cultured with RPMI-1640 medium containing 10% fetal bovine serum (FBS) at 37° C. in 5% CO2 incubator. Logarithmic growth phase cells were collected. COLO205 cells (5×10^6 in 200 μL PBS) were implanted subcutaneously into the left flank region, and tumor growth was monitored. Tumor volume (V) was estimated from the length (l) and width (w) of the tumor using the following formula: V=1/2×l×w^2. Treatment started when average tumor size was 100-150 mm^3. Measuring subcutaneous tumor volume 2 to 3 times every week. Drug efficacy was assessed as Tumor Growth Inhibition (TGI) and Tumor increment rate T/C (%). TGI was defined as (1−T/C)×100%, wherein T/C (%) presented the ratio of the change in mean tumor volume of the treated group and of the control group.

The subject of experiment [2] is BE(2)-C cell. Briefly: Cell proliferation assay (MTS) in BE(2)-C cells. The format is cell-based. As to conditions: Homo sapiens, inhibition of BE(2)-C cell proliferation, 48 h. The procedure, abridged:
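BE(2)-C cells (3000/well, DMEM + 10% FBS) were treated for 48 h at 37 °C with compound at 1.5–10000 nM in nine concentrations. Viability was measured by MTS (2 h, stopped with SDS) at 490/650 nm, and IC50 was calculated from the dose-response.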

The target of experiment [3] is T1, CDK6/cyclin D1 (Homo sapiens, UniProt Q00534).
T1 construct: purchased Invitrogen PR8422B
T1 sequence (Q00534 whole entry): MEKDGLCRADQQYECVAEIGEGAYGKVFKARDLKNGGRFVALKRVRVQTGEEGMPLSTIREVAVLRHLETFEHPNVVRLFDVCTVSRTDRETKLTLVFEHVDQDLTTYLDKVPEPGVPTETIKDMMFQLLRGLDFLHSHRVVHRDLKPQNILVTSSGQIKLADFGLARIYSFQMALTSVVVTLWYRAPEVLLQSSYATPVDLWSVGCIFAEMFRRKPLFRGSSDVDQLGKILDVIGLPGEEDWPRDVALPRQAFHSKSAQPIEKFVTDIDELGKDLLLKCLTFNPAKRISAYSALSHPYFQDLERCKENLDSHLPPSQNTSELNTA
T1 sequence (P24385 whole entry partner): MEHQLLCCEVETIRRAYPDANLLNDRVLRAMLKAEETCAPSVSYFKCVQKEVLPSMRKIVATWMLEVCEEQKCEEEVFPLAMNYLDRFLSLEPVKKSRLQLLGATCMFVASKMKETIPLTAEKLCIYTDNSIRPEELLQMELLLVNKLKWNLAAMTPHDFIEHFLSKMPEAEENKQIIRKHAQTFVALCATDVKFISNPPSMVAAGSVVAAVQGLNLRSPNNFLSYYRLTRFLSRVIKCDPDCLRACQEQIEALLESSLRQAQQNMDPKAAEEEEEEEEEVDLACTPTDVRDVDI
Put plainly: CDK kinase inhibition assay (33P-ATP HotSpot filter binding). Type of experiment: biochemical. To be noted: substrate RB Protein, 10 μM ATP. The protocol:
(§1) Testing compounds were dissolved in 100% DMSO to specific concentration. Compounds were tested in 10-dose mode with 3-fold serial dilution starting at 100 μM. The serial dilution was conducted by epMotion 5070 in DMSO.
(§2) Each substrate was prepared in freshly prepared Reaction Buffer (20 mM Hepes (pH 7.5), 10 mM MgCl2, 1 mM EGTA, 0.02% Brij35, 0.02 mg/ml BSA, 0.1 mM Na3VO4, 2 mM DTT, 1% DMSO). Each kinase was delivered into the substrate solution and the solution was gently mixed. 0.05 μL Compounds were delivered into 5 μL kinase reaction mixture in a 384 well plate by Acoustic technology (Echo550; nanoliter range), and the mixture was incubated for 20 min at room temperature. 0.01 μL of 5 mM ATP with ^33P-ATP (PerkinElmer, Cat# NEG602H001MC, Specific activity […]) was delivered into the reaction mixture to initiate the reaction, and the final concentration of ATP in the mixture was 10 μM. The resulted solutions were incubated for 2 hours at room temperature, the radioactivity incorporated is determined by the proprietary “HotSpot” platform, which is a miniaturized filter-binding method (using this paper as reference: Anastassiadis et al, 2011 Nature Biotech) IC50 value of each compound was generated using GraphPad Prism software.
(§3) Select compounds prepared as described above were assayed according to the biological procedures described herein.

For experiment [4], the target named is T2, CDK2/cyclin A (Homo sapiens, UniProt P24941).
T2 construct: purchased Invitrogen PR4448B
Described as above. As to conditions: substrate Histone H1, 10 μM ATP. The format is biochemical. The protocol: as §1, §2, §3

The target of experiment [5] is T3, CDK4/cyclin D1 (Homo sapiens, UniProt P11802).
T3 construct: purchased Invitrogen PV4436
T3 sequence (P11802 whole entry): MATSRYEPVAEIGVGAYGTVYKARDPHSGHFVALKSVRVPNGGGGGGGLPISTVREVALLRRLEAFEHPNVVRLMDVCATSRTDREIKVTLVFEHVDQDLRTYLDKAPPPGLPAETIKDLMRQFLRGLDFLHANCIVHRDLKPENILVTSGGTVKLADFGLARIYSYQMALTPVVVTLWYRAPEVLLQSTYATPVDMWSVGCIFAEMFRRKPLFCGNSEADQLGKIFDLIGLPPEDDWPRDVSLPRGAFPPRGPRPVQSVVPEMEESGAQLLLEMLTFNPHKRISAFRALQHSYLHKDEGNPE
T3 sequence (P24385 whole entry partner): as the sequence (P24385 whole entry partner) above
The description is as above. Type of experiment: biochemical. As to conditions: substrate RB Protein, 10 μM ATP. Here is the method:
as §1, §2, §3

Experiment [6] deals with T4, CDK1/cyclin B (Homo sapiens, UniProt P06493).
T4 construct: purchased Invitrogen PR4768C
T4 sequence (P06493 whole entry): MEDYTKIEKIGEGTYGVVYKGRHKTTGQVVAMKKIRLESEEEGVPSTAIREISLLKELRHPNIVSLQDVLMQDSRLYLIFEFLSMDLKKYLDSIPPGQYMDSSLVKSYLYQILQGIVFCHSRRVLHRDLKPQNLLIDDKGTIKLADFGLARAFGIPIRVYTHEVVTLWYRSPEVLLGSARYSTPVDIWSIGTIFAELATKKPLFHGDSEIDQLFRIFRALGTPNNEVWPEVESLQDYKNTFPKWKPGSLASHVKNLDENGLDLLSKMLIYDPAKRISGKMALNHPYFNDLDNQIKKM
T4 sequence (P14635 whole entry partner): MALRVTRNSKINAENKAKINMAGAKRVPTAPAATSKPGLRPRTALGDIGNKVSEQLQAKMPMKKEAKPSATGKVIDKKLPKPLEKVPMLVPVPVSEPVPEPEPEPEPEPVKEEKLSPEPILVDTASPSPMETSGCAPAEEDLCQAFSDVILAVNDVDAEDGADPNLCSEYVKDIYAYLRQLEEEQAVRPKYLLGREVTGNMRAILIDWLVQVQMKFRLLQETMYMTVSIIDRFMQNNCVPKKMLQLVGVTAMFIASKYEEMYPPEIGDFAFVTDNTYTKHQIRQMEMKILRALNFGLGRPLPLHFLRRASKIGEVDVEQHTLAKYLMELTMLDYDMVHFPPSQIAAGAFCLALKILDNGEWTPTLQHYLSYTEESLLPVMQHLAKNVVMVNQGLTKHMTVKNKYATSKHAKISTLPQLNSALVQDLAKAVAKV
The description is as above. The format is biochemical. As to conditions: substrate Histone H1, 10 μM ATP. The protocol:
as §1, §2, §3

In the case of `CN1CCN(Cc2ccc(Nc3ncc(F)c(-c4cc(F)c5nc6n(c5c4)[C@H](C(F)F)CC6)n3)nc2)CC1` [Example 11, (S)-4-(1-(difluoromethyl)-5-fluoro-2,3-dihydro-1H-benzo[d]pyrrolo[1,2-a]imidazol-7-yl)-5-fluoro-N-(5-((4-methylpiperazin-1-yl)methyl)pyridin-2-yl)pyrimidin-2-amine], in experiment [1], the “Average Tumor Volume D0” value is reported as 110 ± 3.2, the “T/C % D21” value is 28%, the “TGI % D21” value was 72% and the “Average Tumor Volume D21” value amounted to 570 ± 57. In experiment [2], this molecule yielded an IC50 of 10 to 100 nM.
As to `CCN1CCN(Cc2ccc(Nc3ncc(F)c(-c4cc(F)c5nc6n(c5c4)[C@H](C(F)F)CC6)n3)nc2)CC1` [Example 12, (S)-4-(1-(difluoromethyl)-5-fluoro-2,3-dihydro-1H-benzo[d]pyrrolo[1,2-a]imidazol-7-yl)-N-(5-((4-ethylpiperazin-1-yl)methyl)pyridin-2-yl)-5-fluoropyrimidin-2-amine], the “Average Tumor Volume D0” value in experiment [1] is listed as 113 ± 3.4. Further, in experiment [1], the “T/C % D21” value is 29%. The “TGI % D21” value in experiment [1] amounted to 71%. For the same molecule, in experiment [1], the “Average Tumor Volume D21” value stood at 584 ± 86. Besides, the IC50 in experiment [2] was 10 to 100 nM; in experiment [3], below 5 nM; in experiment [4], 50.5 nM; in experiment [5], below 5 nM; in experiment [6] it was 403 nM.
Take `CN1CCN(c2ccc(Nc3ncc(F)c(-c4cc(F)c5nc6n(c5c4)[C@H](C(F)F)CC6)n3)nc2)CC1` [Example 39, (S)-4-(1-(difluoromethyl)-5-fluoro-2,3-dihydro-1H-benzo[d]pyrrolo[1,2-a]imidazol-7-yl)-5-fluoro-N-(5-(4-methylpiperazin-1-yl)pyridin-2-yl)pyrimidin-2-amine]: the IC50 was above 100 nM in experiment [2]; below 5 nM in experiment [3]; 19.2 nM in experiment [4]; below 5 nM in experiment [5]; 50.5 nM in experiment [6].
Regarding `CCN1CC2CCC(C1)N2Cc1ccc(Nc2cc(-c3cc(F)c4nc5n(c4c3)C(C)(C)CC5)c(F)cn2)nc1` [Example 163, N-(5-((3-ethyl-3,8-diazabicyclo[3.2.1]octan-8-yl)methyl)pyridin-2-yl)-5-fluoro-4-(5-fluoro-1,1-dimethyl-2,3-dihydro-1H-benzo[d]pyrrolo[1,2-a]imidazol-7-yl)pyridin-2-amine], the IC50 in experiment [2] was above 1000 nM.
Still for that read-out and setting: as for `CC1(C)CCc2nc3c(F)cc(-c4cc(Nc5ncc(CN6CCNCC6)cn5)ncc4F)cc3n21` [Example 164, N-(5-fluoro-4-(5-fluoro-1,1-dimethyl-2,3-dihydro-1H-benzo[d]pyrrolo[1,2-a]imidazol-7-yl)pyridin-2-yl)-5-(piperazin-1-ylmethyl)pyrimidin-2-amine], the figure is 10 to 100 nM; as for `CN1CCN(Cc2cnc(Nc3cc(-c4cc(F)c5nc6n(c5c4)C(C)(C)CC6)c(F)cn3)nc2)CC1` [Example 165, N-(5-fluoro-4-(5-fluoro-1,1-dimethyl-2,3-dihydro-1H-benzo[d]pyrrolo[1,2-a]imidazol-7-yl)pyridin-2-yl)-5-((4-methylpiperazin-1-yl)methyl)pyrimidin-2-amine], above 100 nM.
Still for that read-out and setting: under `CCN1CCN(Cc2cnc(Nc3cc(-c4cc(F)c5nc6n(c5c4)C(C)(C)CC6)c(F)cn3)nc2)CC1` [Example 166, 5-((4-ethylpiperazin-1-yl)methyl)-N-(5-fluoro-4-(5-fluoro-1,1-dimethyl-2,3-dihydro-1H-benzo[d]pyrrolo[1,2-a]imidazol-7-yl)pyridin-2-yl)pyrimidin-2-amine] stands above 100 nM.
On the same count and under the same terms, as for `CC1(C)CCc2nc3ncc(-c4cc(Nc5ccc(CN6C7CCC6CNC7)cn5)ncc4F)cc3n21` [Example 167, N-(5-((3,8-diazabicyclo[3,2,1]octan-8-yl)methyl)pyridin-2-yl)-4-(6,6-dimethyl-7,8-dihydro-6H-pyrrolo[1′,2′:1,2]imidazo[4,5-b]pyridin-3-yl)-5-fluoropyridin-2-amine], the figure is 10 to 100 nM; as for `CN1CC2CCC(C1)N2Cc1ccc(Nc2cc(-c3cnc4nc5n(c4c3)C(C)(C)CC5)c(F)cn2)nc1` [Example 168, 4-(6,6-dimethyl-7,8-dihydro-6H-pyrrolo[1′,2′:1,2]imidazo[4,5-b]pyridin-3-yl)-5-fluoro-N-(5-((3-methyl-3,8-diazabicyclo[3.2.1]octan-8-yl)methyl)pyridin-2-yl)pyridin-2-amine], above 100 nM; as for `CCN1CC2CCC(C1)N2Cc1ccc(Nc2cc(-c3cnc4nc5n(c4c3)C(C)(C)CC5)c(F)cn2)nc1` [Example 169, 4-(6,6-dimethyl-7,8-dihydro-6H-pyrrolo[1′,2′:1,2]imidazo[4,5-b]pyridin-3-yl)-N-(5-((3-ethyl-3,8-diazabicyclo[3.2.1]octan-8-yl)methyl)pyridin-2-yl)-5-fluoropyridin-2-amine], above 100 nM.
